# Measured values: paper PMC3711460 (The Journal of neuroscience : the official journal of the …, 2013)
# Legend:
# [1] = target: T1, TAAR3 (Mus musculus, UniProt Q5QD16); assay type: cell-based
# T1 sequence (Q5QD16 1-343): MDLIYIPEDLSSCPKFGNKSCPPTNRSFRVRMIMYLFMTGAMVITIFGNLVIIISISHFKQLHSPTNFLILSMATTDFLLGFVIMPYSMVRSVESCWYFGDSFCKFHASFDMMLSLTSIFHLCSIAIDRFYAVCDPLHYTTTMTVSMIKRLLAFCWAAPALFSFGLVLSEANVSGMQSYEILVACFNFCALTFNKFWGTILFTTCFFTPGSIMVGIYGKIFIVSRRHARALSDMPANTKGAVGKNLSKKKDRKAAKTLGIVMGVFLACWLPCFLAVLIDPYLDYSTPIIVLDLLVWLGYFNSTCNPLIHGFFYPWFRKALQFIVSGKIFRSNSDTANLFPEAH
# [2] = target: T2, human TAAR5 (Homo sapiens, UniProt O14804); assay type: cell-based
# T2 sequence (O14804 1-337): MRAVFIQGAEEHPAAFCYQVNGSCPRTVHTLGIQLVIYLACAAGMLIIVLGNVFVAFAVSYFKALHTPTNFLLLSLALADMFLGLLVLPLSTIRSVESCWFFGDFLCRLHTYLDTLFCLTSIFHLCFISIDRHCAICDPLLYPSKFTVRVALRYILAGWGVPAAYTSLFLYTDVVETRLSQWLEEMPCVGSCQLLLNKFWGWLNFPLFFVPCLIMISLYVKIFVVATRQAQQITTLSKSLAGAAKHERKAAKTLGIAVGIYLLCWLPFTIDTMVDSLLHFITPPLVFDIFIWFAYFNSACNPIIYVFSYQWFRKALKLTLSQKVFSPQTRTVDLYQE
EC50 [2] [nM],SMILES,EC50 [1] [nM]
–,"NC1CCCCC1 [CHX, cyclohexylamine]",270
–,"CC(C)CCN [IPA, isopentylamine]",15
1200 ± 600,"CCN(C)C [DMEA, N,N-dimethylethylamine]",–
